According to patent publication US12472160B2, “Modified-release tiopronin compositions, kits and methods for treating cystinuria and related disorders” (ALTIBIO, INC., priority 2017, dated 2025):

Test: Total and free plasma tiopronin and urinary tiopronin recovery in Beagle dogs after intraduodenal administration (Example 5)
Format: in vivo
Description: The objective of this study was to evaluate total and free plasma tiopronin, and total urinary tiopronin, in an animal model (male Beagle dogs) following intraduodenal administration of tiopronin, to determine whether small intestine administration, would improve drug pharmacokinetics. Specifically, tiopronin formulations were administered to deliver 30 mg/kg per dog via single dose; and blood and urine samples then collected at different times post-dose.
Tiopronin formulations were administered to provide 30 mg/kg per dog as one single intraduodenal dose. Following administration, blood and urine samples were collected at the time points, or over the time intervals, indicated below.
Preparation of Dosing Formulations: Capsules were prepared and filled on the day of dosing, as follows. Tiopronin was dry mixed with avicel and mannitol to make a 40:30:30 mixture of tiopronin to avicel to mannitol, respectively. The dry mixes were custom filled with the appropriate amount of powder to deliver the specified doses to each dog based, on their respective body weights.
Animal Dosing and Sample Collection: This non-clinical study followed established practices and standard operating procedures of Absorption Systems and Absorption Systems Inc., as well as the study protocol. Study groups each included three dogs. The dogs were housed one per cage. The dogs were fasted for at least sixteen hours prior to each administration of the formulation. Food was given approximately eight hours post initial dosing. Animals had free access to water throughout the study.
Intraduodenal (ID) administration: Animals were anesthetized by a slow IV infusion of Propofol (6-10 mg/kg) or with an intramuscular injection of a cocktail containing ketamine (approximately 10-20 mg/kg), diazepam (3 mg/kg), and acepromazine (0.05 mg/kg) given IM about 5-10 minutes before intubation. Once animals were confirmed adequately anesthetized they were intubated and maintained using isoflurane (approximately 1-5% in oxygen 1 to 4 L/min) as necessary until dosing is complete. Formulations were administered into the proximal duodenum via endoscopic guidance to verify the dosing site. The endoscope first was maneuvered into the pyloric sphincter with camera visualization of the proximal duodenum. Once there was confirmation that the endoscope was placed between the pylorus and proximal duodenum, the test article was delivered to the proximal duodenum followed by a 5 mL flush. Upon completion of the dosing, the animals were taken off the isoflurane and allowed to recover from anesthesia. Time points began upon completion of the entire dose procedure. Following each blood sampling time point, 15 mL of water was given to each dog via syringe. […]

[1] = intraduodenal single 30 mg/kg dose, average, n=3 dogs

CC(S)C(=O)NCC(=O)O (stereo not drawn) [tiopronin, alpha-mercaptopropionylglycine]
% of the dose (unchanged drug) found in urine (ID single 30 mg/kg dose, average, n=3 dogs): 30.5±19.9% | maximum plasma concentrations of free tiopronin [1]: 1643 ± 105 ng/mL | maximum plasma concentrations of total tiopronin [1]: 8640 ± 5522 ng/mL | urinary recovery of tiopronin, small intestine vs oral administration (single 30 mg/kg dose, FIG. 16): better tiopronin recovery in urine
